Earlier results, collected in patent US8697743B2, “Antioxidant camptothecin derivatives and antioxidant antineoplastic nanospheres thereof” (Cedars-Sinai Medical Center, priority 2008, dated 2014).

Key:
[1] = 30 minutes after administration

For CC[C@@]1(O)C(=O)OCc2c1cc1n(c2=O)Cc2cc3ccccc3nc2-1 [camptothecin, (S)-4-ethyl-4-hydroxy-1H-pyrano-[3′,4′:6,7]indolizino[1,2-b]quinoline-3,14(4H,12H)-dione], the solubility in water is given as “essentially insoluble in water” and the “lactone form hydrolyzed to an open ring” value [1] is given as 50%.
